# Assay: Net charge and isoelectric point of peptide
# Assay type: physicochemical
# Details: pH 7
# Source text: The peptide may be purified. For example, the peptide may be lyophilized. […] Other peptides are within the scope of the disclosure.
# Exemplary peptides having a charge of +5 to +9 include […](d)[…], […](d)[…], and […](d)[…]. In other embodiments, the purified peptide may be substantially neutral. […] Net charge may be selected by peptide design. Design of electrostatic charge in the peptide hydrogel may allow control of charge interaction with cell membrane and proteins.
substance,measurement,value
VEVSVSVEV(d)PPTEVSVEVEV,net charge,net negative charge
